Source: patent publication US11773078B2, “Furin inhibitors” (Glaxosmithkline Intellectual Property Development Limited, priority 2018, dated 2023)
Where a name gives a salt, the structure may show the parent alone.

Columns and labels:
[1] = molecular target: T1, furin (endogenous protease) in U20S cells (Homo sapiens, UniProt P09958); experiment: Furin cell-based assay (image-based, Golgi-targeted GFP with BMP10 furin/PCSK cleavage site); conditions: 24-hour incubation, read-out: furin golgi cell pXC50 (converted);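 note: Read-out is mean GFP fluorescence of Golgi puncta per cell by high-content imaging, retained when furin inhibited, over an eleven-point 0.00017–10 µM series, four-parameter fit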
T1 construct: the endogenous protease cleaves GFP; endogenous in cells; host or cells: U2OS cells transduced with a BacMam reporter
T1 sequence (P09958 108-794): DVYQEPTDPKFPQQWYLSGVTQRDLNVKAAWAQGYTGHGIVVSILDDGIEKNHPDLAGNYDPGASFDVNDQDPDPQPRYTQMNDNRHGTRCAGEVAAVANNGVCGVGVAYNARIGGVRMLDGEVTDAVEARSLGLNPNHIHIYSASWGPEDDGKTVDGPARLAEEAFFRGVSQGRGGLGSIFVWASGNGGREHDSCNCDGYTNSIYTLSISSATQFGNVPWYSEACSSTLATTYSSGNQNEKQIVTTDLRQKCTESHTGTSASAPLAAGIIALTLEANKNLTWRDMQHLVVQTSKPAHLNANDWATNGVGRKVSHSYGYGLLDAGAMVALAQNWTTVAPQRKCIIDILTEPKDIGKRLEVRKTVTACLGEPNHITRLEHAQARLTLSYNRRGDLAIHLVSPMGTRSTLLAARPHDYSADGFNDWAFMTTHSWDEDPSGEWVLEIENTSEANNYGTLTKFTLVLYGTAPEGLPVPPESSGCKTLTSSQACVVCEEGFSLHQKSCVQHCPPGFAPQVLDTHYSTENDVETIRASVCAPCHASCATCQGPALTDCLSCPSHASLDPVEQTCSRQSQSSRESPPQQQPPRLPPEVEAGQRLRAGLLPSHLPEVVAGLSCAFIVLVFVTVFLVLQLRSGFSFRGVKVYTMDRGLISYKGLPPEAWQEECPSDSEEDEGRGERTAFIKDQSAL

[2] = molecular target: T2, Furin (108-574-Tev-Flag-His) enzyme (Homo sapiens, UniProt P09958); experiment: Furin enzyme assay; type: biochemical; conditions: for IC50: read-out: furin enzyme pIC50 (converted)
T2 construct: Furin (108-574-Tev-Flag-His) enzyme was expressed and purified from CHO cells; TEV cleavage site (C); FLAG (C); His (C); made in house; host or cells: CHO cells
T2 sequence (P09958 108-574): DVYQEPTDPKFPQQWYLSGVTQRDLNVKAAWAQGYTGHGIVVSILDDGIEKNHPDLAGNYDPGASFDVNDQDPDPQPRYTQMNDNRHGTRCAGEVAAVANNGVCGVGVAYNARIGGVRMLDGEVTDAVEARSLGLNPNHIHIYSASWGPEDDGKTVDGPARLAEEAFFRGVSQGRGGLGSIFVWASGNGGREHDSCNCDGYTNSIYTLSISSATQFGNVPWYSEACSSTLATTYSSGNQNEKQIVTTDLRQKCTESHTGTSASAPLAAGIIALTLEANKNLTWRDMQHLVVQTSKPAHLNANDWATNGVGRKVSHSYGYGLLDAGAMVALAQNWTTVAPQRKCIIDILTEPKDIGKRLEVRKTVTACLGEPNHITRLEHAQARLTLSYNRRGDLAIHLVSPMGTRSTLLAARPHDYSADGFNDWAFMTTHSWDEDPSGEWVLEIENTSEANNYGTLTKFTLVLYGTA
Experimental: Reactions were performed in black 384-well polystyrene low volume plates (Greiner). Furin (108-574-Tev-Flag-His) enzyme was expressed and purified from CHO cells. Compounds of the invention were dissolved in DMSO (1.0 mM) and serially diluted 1 to 3 with DMSO through eleven dilutions to provide a final compound concentration range from 0.00017 to 10 μM. 0.05 μL of each concentration was transferred to the corresponding well of an assay plate, and then 5 μL of 40 pM furin enzyme in assay buffer (100 mM HEPES pH7.5, 1 mM CaCl2 and 0.005% Triton X-100) was added using a Multidrop Combi (Thermo) to the compound plates, and mixed by inversion. […] The plates were centrifuged at 500×g for 1 minute and incubated at room temperature for two hours. Enzyme inhibition is then quantified using an Envision instrument (PerkinElmer).
Data were analyzed using AbaseXE 7.3, utilizing a four-parameter curve fit equation. The following values were used to define limits and/or constraints for each of the four parameters: • Minimum—limit −10 to 10 • Maximum—90 to 110 • Slope—limit 0.5 to 2.0 • pXC50 confidence interval—10
Raw counts obtained from the respective plate reader (Perkin Elmer) were captured for data analysis. Curves were generated using the equation: Y=A+[(B−A)/(1+(10^C/x)^D)] • where: A=minimum response • B=maximum response • C=log 10*XC50 • D=slope factor • x=log 10 compound concentration [M]
The results were recorded as pXC50 values (−C in the above equation)

SMILES	EC50 [1] [nM]	furin enzyme pIC50 [2]	IC50 [2] [nM]
CC(=O)NCC1CCN(Cc2cc(Oc3ccc(N4C[C@H](CN)[C@@H](O)C4)nc3)nc(-c3cc(Cl)cc(Cl)c3)c2)CC1 (relative stereo) [Example 184, N-((1-((2-((6-(trans-3-(Aminomethyl)-4-hydroxypyrrolidin-1-yl)pyridin-3-yl)oxy)-6-(3,5-dichlorophenyl)pyridin-4-yl)methyl)piperidin-4-yl)methyl)acetamide]	15.8		0.251
CC(=O)NCC1CCN(Cc2cc(Oc3ccc(N4CCN(CCc5nnn[nH]5)CC4)nc3)nc(-c3cc(Cl)cc(Cl)c3)c2)CC1 [Example 14, N-((1-((2-((6-(4-(2-(1H-Tetrazol-5-yl)ethyl)piperazin-1-yl)pyridin-3-yl)oxy)-6-(3,5-dichlorophenyl)pyridin-4-yl)methyl)piperidin-4-yl)methyl)acetamide, 4 hydrochloride]	631	9.5	
CC(=O)NCC1CCN(Cc2cc(Oc3ccc(N4CCN(C(C)CCS(C)(=O)=O)CC4)nc3)nc(-c3cc(Cl)cc(Cl)c3)c2)CC1 (stereo not drawn) [Example 16]	1.26	9	
CNC(=O)NCC1CCN(Cc2cc(Oc3cnc(N4CCN(CCC(C)[S+](C)[O-])CC4)nc3)nc(-c3cc(Cl)cc(Cl)c3)c2)CC1 (stereo not drawn) [Example 17, 1-((1-((2-(3,5-dichlorophenyl)-6-((2-(4-(3-(methylsulfinyl)butyl)piperazin-1-yl)pyrimidin-5-yl)oxy)pyridin-4-yl)methyl)piperidin-4-yl)methyl)-3-methylurea]	2		0.0316
CC(=O)NCC1CCN(Cc2cc(Oc3ncc(N)cn3)cc(-c3cc(Cl)cc(Cl)c3)c2)CC1 [Example 43, N-((1-((5-((5-aminopyrimidin-2-yl)oxy)-3′,5′-dichloro-[1,1′-biphenyl]-3-yl)methyl)piperidin-4-yl)methyl)acetamide]		6	
COC(=O)NC(=O)CCN1CCN(c2ncc(Oc3cc(CN4CCC(CNC(C)=O)CC4)cc(-c4cc(Cl)cc(Cl)c4)n3)cn2)CC1 [Example 172, methyl (3-(4-(5-((4-((4-(acetamidomethyl)piperidin-1-yl)methyl)-6-(3,5-dichlorophenyl)pyridin-2-yl)oxy)pyrimidin-2-yl)piperazin-1-yl)propanoyl)carbamate]			0.251
COC(=O)NC(=O)CCN1CCN(c2ncc(Oc3cc(CN4CCC(CNC(C)=O)CC4)cc(-c4cc(Cl)cc(Cl)c4)n3)cn2)CC1 [Example 175, methyl (3-(4-(5-((4-((4-(acetamidomethyl)piperidin-1-yl)methyl)-6-(3,5-dichlorophenyl)pyridin-2-yl)oxy)pyrimidin-2-yl)piperazin-1-yl)propanoyl)carbamate]		9.2	
CNC(=O)NCC1CCN(Cc2cc(Oc3ccc(N4CCN(CCCS(N)(=O)=O)CC4)nc3)nc(-c3cc(Cl)cc(Cl)c3)c2)CC1 [Example 260, 3-(4-(5-((6-(3,5-dichlorophenyl)-4-((4-((3-methylureido)methyl)piperidin-1-yl)methyl)pyridin-2-yl)oxy)pyridin-2-yl)piperazin-1-yl)propane-1-sulfonamide]	6.31		
CN1CCN(c2ncc(Oc3cc(CN4CC[C@@H]5[C@H](CC4)[C@H]5C(=O)O)cc(-c4cc(Cl)cc(Cl)c4)n3)cn2)CC1 [Example 321, (1R,7S,8r)-4-((2-(3,5-dichlorophenyl)-6-((2-(4-methylpiperazin-1-yl)pyrimidin-5-yl)oxy)pyridin-4-yl)methyl)-4-azabicyclo[5.1.0]octane-8-carboxylic acid]	15.8		
C[C@H](CC1CCN(Cc2cc(Oc3ccc(N4CCN(C)CC4)nn3)nc(-c3cc(Cl)cc(Cl)c3)c2)CC1)C(=O)O [Example 364, (R)-3-(1-((2-(3,5-dichlorophenyl)-6-((6-(4-methylpiperazin-1-yl)pyridazin-3-yl)oxy)pyridin-4-yl)methyl)piperidin-4-yl)-2-methylpropanoic acid]	31.6		
CN1CCN(c2cnc(Oc3nc(-c4cc(Cl)cc(Cl)c4)cc(CN4CCC(CC(=O)O)CC4)c3F)cn2)CC1 [Example 390, 2-(1-((6-(3,5-Dichlorophenyl)-3-fluoro-2-((5-(4-methylpiperazin-1-yl)pyrazin-2-yl)oxy)pyridin-4-yl)methyl)piperidin-4-yl)acetic acid]		8.3	

Next, values leading:

EC50 [1] [nM]	furin enzyme pIC50 [2]	IC50 [2] [nM]	SMILES
1.58	9.3		CC(=O)NCC1CCN(Cc2cc(Oc3ccc(N4CC[C@@H](N)[C@@H](F)C4)nc3)nc(-c3cc(Cl)cc(Cl)c3)c2)CC1 (relative stereo) [Example 182]
1.58	8.3		CNC(=O)CN1CCN(Cc2cc(Oc3ccc(N4CCNCC4)nc3)nc(-c3cc(Cl)cc(Cl)c3)c2)CC1 [Example 1, 2-(4-((2-(3,5-Dichlorophenyl)-6-((6-(piperazin-1-yl)pyridin-3-yl)oxy)pyridin-4-yl)methyl)piperazin-1-yl)-N-methylacetamide, 5 hydrochloride]
39.8	8.8		CC(=O)NCC1(O)CCN(Cc2cc(Oc3ccc(N4CCNCC4)nc3)nc(-c3cc(Cl)cc(Cl)c3)c2)CC1 [Example 2, N-((1-((2-(3,5-Dichlorophenyl)-6-((6-(piperazin-1-yl)pyridine-3-yl)oxy)pyridin-4-yl)methyl)-4-hydroxypiperidin-4-yl)methyl)acetamide]
50.1	8.9		O=C(O)CCC1CCN(Cc2cc(Oc3ccc(N4CCNCC4)nc3)nc(-c3cc(Cl)cc(Cl)c3)c2)CC1 [Example 3, 3-(1-((2-(3,5-Dichlorophenyl)-6-((6-(piperazin-1-yl)pyridin-3-yl)oxy)pyridin-4-yl)methyl)piperidin-4-yl)propanoic acid, 4 hydrochloride]
31.6	8.7		O=C(O)CC1CCN(Cc2cc(Oc3ccc(N4CCNCC4)nc3)nc(-c3cc(Cl)cc(Cl)c3)c2)CC1 [Example 4, 2-(1-((2-(3,5-Dichlorophenyl)-6-((6-(piperazin-1-yl)pyridin-3-yl)oxy)pyridin-4-yl)methyl)piperidin-4-yl)acetic acid, 4 hydrochloride]
63.1	9.1		CNC(=O)NCC1(O)CCN(Cc2cc(Oc3ccc(N4CCNCC4)nc3)nc(-c3cc(Cl)cc(Cl)c3)c2)CC1 [Example 5, 1-((1-((2-(3,5-Dichlorophenyl)-6-((6-(piperazin-1-yl)pyridin-3-yl)oxy)pyridin-4-yl)methyl)-4-hydroxypiperidin-4-yl)methyl)-3-methylurea, 4 hydrochloride]
7.94	8.5		COC(=O)NCC1(O)CCN(Cc2cc(Oc3ccc(N4CCNCC4)nc3)nc(-c3cc(Cl)cc(Cl)c3)c2)CC1 [Example 6, Methyl ((1-((2-(3,5-dichlorophenyl)-6-((6-(piperazin-1-yl)pyridin-3-yl)oxy)pyridin-4-yl)methyl)-4-hydroxypiperidin-4-yl)methyl)carbamate, 4 hydrochloride]
79.4	9.2		O=S(=O)(O)CCC1CCN(Cc2cc(Oc3ccc(N4CCNCC4)nc3)nc(-c3cc(Cl)cc(Cl)c3)c2)CC1 [Example 7, 2-(1-((2-(3,5-Dichlorophenyl)-6-((6-(piperazin-1-yl)pyridin-3-yl)oxy)pyridin-4-yl)methyl)piperidin-4-yl)ethanesulfonic acid, 4 hydrochloride]
200	8.9		O=S(=O)(O)CC1CCN(Cc2cc(Oc3ccc(N4CCNCC4)nc3)nc(-c3cc(Cl)cc(Cl)c3)c2)CC1 [Example 8, (1-((2-(3,5-Dichlorophenyl)-6-((6-(piperazin-1-yl)pyridin-3-yl)oxy)pyridin-4-yl)methyl)piperidin-4-yl)methanesulfonic acid, 4 hydrochloride]
7.94	9.2		CC(=O)NCC1CCN(Cc2cc(Oc3ccc(N4CCNCC4)nc3)nc(-c3cc(Cl)cc(Cl)c3)c2)CC1 [Example 9, N-((1-((2-(3,5-Dichlorophenyl)-6-((6-(piperazin-1-yl)pyridin-3-yl)oxy)pyridin-4-yl)methyl)piperidin-4-yl)methyl)acetamide, 4 hydrochloride]
7.94	9.1		CC(=O)NCC1CCN(Cc2cc(Oc3ccc(N4CCN(CCC(N)=O)CC4)nc3)nc(-c3cc(Cl)cc(Cl)c3)c2)CC1 [Example 13, hydrochloride]
25.1	8.5		CC(=O)NCC1CCN(Cc2cc(Oc3ccc(N4CCN(CC[S+](C)[O-])CC4)nc3)nc(-c3cc(Cl)cc(Cl)c3)c2)CC1 (stereo not drawn) [Example 15, N-((1-((2-(3,5-Dichlorophenyl)-6-((6-(4-(2-(methylsulfinyl)ethyl)piperazin-1-yl)pyridin-3-yl)oxy)pyridin-4-yl)methyl)piperidin-4-yl)methyl)acetamide, 4 hydrochloride]
